# Entries after “also recorded” stand apart in the source; their conditions may differ.
# Key:
# Human oocytes (COCs) [1] = assay: Meiosis arrest (nuclear maturation stage GV/GVBD/PB) of COCs cultured with DDMP; type: cell-based; conditions: for oocytes still arrested at the GV-stage: 72 hours in DDMP
# Method: (§1) Patients included in this study were undergoing fertility treatment and were primed with variable doses of gonadotropins while being carefully monitored using serum hormone and vaginal ultrasound monitoring (Human Reproduction 7 (1992), 49 et seq.). Collection of oocytes cumulus complexes (COCs) from different follicle sizes was performed as follows: 1°) during laparoscopic surgery, 2°) aspirated from patients with stimulated ovaries undergoing follicle reduction before intrauterine insemination (to avoid multiple gestation due to multiple ovulation) (Albano et al, 2001) or 3°) during ovum pick up after having aspirated the larger follicles (>15 mm) destinated for IVF treatment (Human Reproduction 7 (1992), 49 et seq.). Basically, these aspirations yielded two types of COC: a first group that had never been exposed to LH activity (pre-hCG) and a second group of follicles 36 h after an exposure to hCG (injected) or endogenous LH (spontaneous LH peak). When possible, follicle diameters were recorded by vaginal ultrasound measurement. COCs used in this study were retrieved from follicles with diameters between 6 and 14 mm.
# Human oocytes aspiration was performed by ultrasound-guided transvaginal follicle aspiration using a single lumen needle (Cook, K-OPS-1230-VUB, Switzerland AG) after paracervical infiltration with a local anesthetic. The aspiration pressure used was reduced from the usual 100 mmHg for recovery of mature oocytes to 60 mmHg. Follicles were flushed using HEPES-buffered Earle's medium at least three times.
# (§2) At the time of oocyte retrieval only the COCs classified as I or II were placed in culture.
# Twenty-four hours later, oocyte stages were recorded and oocytes showing a clear polar body extrusion were removed from culture. After 48 hours, all oocytes were assessed and GV, GVBD and polar body extruded ones were recorded.
# (§3) The basal medium used for oocyte culture was D-MEM (D-5280, Life Technologies, Merelbeke, Belgium) with 2 mM Glutamax-1, NaHCO3 (2 g/L) supplemented with 10 mIU/ml FSH (Gonal-F®, kindly donated by Ares Serono, Geneva, Switzerland), 100 ng/ml IGF-I (R&D, UK), 5 ng/ml insulin, 5 ng/ml selenium, 5 μg/ml transferrin (Life technologies, Merelbeke, Belgium) and 0.1% human serum albumin (CAF-DCF, Brussels, Belgium). 17β-E2 (Sigma, Bornem, Belgium) was diluted in ethanol and added to oil to reach a final concentration of 1 μg/ml in the 10 μl medium droplets underneath (this concentration was measured using specific radioimmunoassay). Microdroplets of 10 μl medium, were covered with 2 ml of oil. A refreshment of […] conditioned medium was performed each 24 hours. All cultures were carried out at 37° C. in humidified atmosphere in an incubator gassed with 5% CO2 in air.
# (§4) DDMP was added at a 10 μM final concentration (0.1% DMSO). Directly after aspiration, single COCs were washed in flushing medium (D-MEM with HEPES) and placed into […] droplets under oil. COCs were randomised over two culture conditions: with and without DDMP. Oocytes cultured with DDMP for 24 hours, 48 hours and 72 hours were studied for reversal of meiosis arrest by washing out the inhibitor. Reversal of PDE 3 inhibition was performed by mechanical denudation of the remaining somatic cells and placing the oocytes in the conditioned medium for an additional 24-30 h.
# (§5) Evaluation of cumulus morphology expansion in culture related to follicle treatment, resumption of maturation, kinetics of GVBD and polar body extrusion were analysed using the χ^2test and Fisher's exact test for comparison between control and DDMP treated groups. Statistical significance was considered when P<0.05.
# Human oocytes (COCs) [2] = assay: Light and electron microscopy of oocytes arrested by DDMP; type: cell-based
# Method: During evaluation at 24 hours and 48 hours culture, part of the oocytes with and without DDMP were fixed for EM analysis.
# A total of 48 oocytes (4 at time of retrieval, 21 after 24 hours, 20 after 48 hours and 3 after 72 hours culture) were fixed in glutaraldehyde 2.5% in cacodylate buffer at pH 7.3 for at least 2 hours at 4° C. at time 0 h, 24 hours and 48 hours of maturation. All oocytes were embedded individually. Afterwards, they were postfixed in OsO4 1% in H2O for 30 min, stained with uranyl acetate 2% in veronal buffer for 60 min, dehydrated through graded alcohols, embedded in SPURR (Taab; Bodson, Liège, Belgium) and left to polymerize overnight at 70° C.
# Semithin sections of 0.5 μm and ultrathin sections of 75 nm were made at approximately 30 levels (range 15-35). The semithin sections were mounted on glass slides and stained with toluidine blue for light microscopical guidance. […]
# In order to analyse the effect of PDE 3 inhibition on nuclear and cytoplasm organization, ultrastructural observation was performed at the different culture times in oocytes arrested or not by DDMP. The oocytes analyzed did originate from follicles with diameter between 8-12 mm.
# [3] = system: Human oocytes arrested at GV-stage; assay: Reversal of meiosis arrest after washing out the inhibitor; type: cell-based
# Method: as §4, with “Reversal of PDE 3 inhibition was performed by mechanical denudation of the remaining somatic cells and placing the oocytes in the conditioned medium for an additional 24-30 h.” left out
# as §5
# [4] = system: cumulus-corona cells of COCs; assay: Cumulus cell expansion (COC types I-IV) during culture in the presence of DDMP; type: cell-based, human
# Method: as §1
# The COCs were evaluated immediately after aspiration and after 24 hours and 48 hours culture and classified as follows: type (I), compact mass of 3-5 layers of granulosa cells; type (II), expanded distal layers of granulosa cells (cumulus), but a compact proximal granulosa cell layer; type (III), expanded distal (cumulus) and proximal (corona cells) layers of granulosa cells; and type (IV) partially denuded oocytes due to expanded granulosa cells.
# as §2, §3, §4, §5
# [5] = system: polar body extruded oocytes; assay: Confocal laser microscopy for microfilaments and chromosome analysis; type: cell-based, human
# Method: For localization of microfilaments, 39 polar body extruded oocytes (25 oocytes 48 hours after maturation in control medium and 14 oocytes after inhibitor removal) were fixed with 2.5% glutaraldehyde in cacodylate buffer for at least 2 hours, washed with PBS/1% BSA, placed into 0.1% Triton X-100 for 5 min and rinsed again with PBS. Afterwards, oocytes were placed into Texas red-labeled phalloidin staining f-actin diluted 1:40 PBS for f-actin and Pico green 1:2000 PBS for DNA staining.
# isolated oocytes = conditions: rodents; cited from earlier work
# [6] = inhibitor removal day 2 (48 hours in DDMP), post-hCG, 11 oocytes
# [7] = inhibitor removal day 2 (48 hours in DDMP), pre-hCG, 11 oocytes
# [8] = inhibitor removal day 3 (72 hours in DDMP), post-hCG, 10 oocytes
# [9] = inhibitor removal day 3 (72 hours in DDMP), pre-hCG, 13 oocytes
# [10] = post-hCG COCs, 24 hours culture in DDMP 10 μM
# [11] = pre-hCG COCs, 24 hours culture in DDMP 10 μM
smiles,measurement,setting,value
"COc1cc2cc(C3=NNC(=O)CC3C)sc2cc1OC (stereo not shown) [DDMP, 4,5-dihydro-6-(5,6-dimethoxybenzo[b]thien-2-yl)-5-methyl-3(2H)-pyridazinone]",time up to which nuclear arrest could be held on,Human oocytes (COCs) [1]; DDMP 10 μM,up to 72 hours
same,time for which resumption of meiosis was blocked / meiotic arrest in GV maintained,"Human oocytes (COCs) [1]; DDMP 10 μM, COCs from antral follicles",at least 48 hours
same,oocytes remaining at GV-stage,"Human oocytes (COCs) [1]; post-hCG COCs (n=42), 24 hours, DDMP 10 μM, control 22.5%",92.9%
same,COCs classified type II at retrieval that remained arrested at the GV-stage,"Human oocytes (COCs) [1]; post-hCG COCs of type II at retrieval, 48 hours culture with DDMP",77.6%
same,oocytes that extruded a visible polar body (PB),"Human oocytes (COCs) [1]; post-hCG COCs, 24 hours, DDMP 10 μM, control 10.0%",2.4%
same,oocytes at the GV-stage,"Human oocytes (COCs) [1]; post-hCG COCs, 48 hours, DDMP 10 μM, control 6.0%",83.3%
same,oocytes at GVBD,"Human oocytes (COCs) [1]; post-hCG COCs, 48 hours, DDMP 10 μM, control 12.1%",8.3%
same,oocytes at PB,"Human oocytes (COCs) [1]; post-hCG COCs, 48 hours, DDMP 10 μM, control 81.8%",5.6%
same,oocytes still arrested at the GV-stage,"Human oocytes (COCs) [1]; post-hCG, 10 out of 15",66.6%
same,oocytes remaining at GV-stage,"Human oocytes (COCs) [1]; pre-hCG COCs (n=39), 24 hours, DDMP 10 μM, control 24.3%",all oocytes remained at GV-stage
same,oocytes at GVBD,"Human oocytes (COCs) [1]; pre-hCG COCs, 48 hours, DDMP 10 μM, control 12.9%",5.5%
same,oocytes remaining at GV-stage,"Human oocytes (COCs) [1]; pre-hCG COCs, 48 hours, DDMP 10 μM, control 19.3%",88.9%
same,oocytes at PB,"Human oocytes (COCs) [1]; pre-hCG COCs, 48 hours, DDMP 10 μM, control 64.5%",2.8%
same,oocytes still arrested at the GV-stage,"Human oocytes (COCs) [1]; pre-hCG, 16 out of 19",84.2%
same,ultrastructural morphological signs of oocyte degeneration,"Human oocytes (COCs) [2]; DDMP 10 μM, at least 48 hours culture",without ultrastructural morphological signs of oocyte degeneration
same,morphological aspect of COC (degeneration),Human oocytes (COCs) [2]; arrested in vitro for 72 hours in presence of DDMP (FIG. 11),degenerative aspect
same,number of oocytes that progressed to GVBD after inhibitor wash-out,"[3]; 48 hours in DDMP, post-hCG, 11 oocytes, 24-30 h in control medium",11
same,number of oocytes that progressed to GVBD after inhibitor wash-out,"[3]; 48 hours in DDMP, pre-hCG, 11 oocytes, 24-30 h in control medium",4
same,number of oocytes that progressed to GVBD after inhibitor wash-out,"[3]; 72 hours in DDMP, pre-hCG, 13 oocytes, 24 to 30 hours in conditioned medium",7
same,PB (%) 24-30 hours after DDMP removal,[3]; [6],54%
same,number of oocytes at GVBD (arrested at this stage) 24-30 hours after DDMP removal,[3]; [6],5
same,number of oocytes at PB 24-30 hours after DDMP removal,[3]; [6],6
same,PB (%) 24-30 hours after DDMP removal,[3]; [7],27%
same,number of oocytes at GV 24-30 hours after DDMP removal,[3]; [7],7
same,number of oocytes at GVBD (arrested at this stage) 24-30 hours after DDMP removal,[3]; [7],1
same,number of oocytes at PB 24-30 hours after DDMP removal,[3]; [7],3
same,PB (%) 24-30 hours after DDMP removal,[3]; [8],100%
same,number of oocytes at PB 24-30 hours after DDMP removal,[3]; [8],10
same,PB (%) 24-30 hours after DDMP removal,[3]; [9],46%
same,number of oocytes at GV 24-30 hours after DDMP removal,[3]; [9],6
same,number of oocytes at GVBD (arrested at this stage) 24-30 hours after DDMP removal,[3]; [9],1
same,number of oocytes at PB 24-30 hours after DDMP removal,[3]; [9],6
same,resumption of meiosis after inhibitor removal,[3]; oocytes arrested with DDMP 10 μM,capable of resuming meiosis within the normal time frame
same,influence on expansion and mucification pattern of COC / loss of coupling between somatic cells and oocyte,"[4]; DDMP 10 μM versus control medium, before and during culture",not modified; also recorded: no influence
same,proportion of COCs classified type I,"[4]; post-hCG COCs of the DDMP group, at retrieval (0 hour, baseline)",48.8%
same,oocytes that had lost connection with cumulus cells (type IV),[4]; [10],7.1%
same,proportion of COCs classified type I,[4]; [10],4.7%
same,proportion of COCs classified type II,[4]; [10],57.1%
same,proportion of COCs classified type III,[4]; [10],30.9%
same,oocytes that had lost connections with the somatic cells (type IV),"[4]; post-hCG COCs, 48 hours culture in DDMP 10 μM",62.1%
same,proportion of COCs classified type I,"[4]; pre-hCG COCs of the DDMP group, at retrieval (0 hour, baseline)",74.4%
same,proportion of COCs classified type I,[4]; [11],25.6%
same,proportion of COCs classified type II,[4]; [11],56.4%
same,proportion of COCs classified type III,[4]; [11],15.4%
same,oocytes that had lost their connections with the cumulus cells (type IV),"[4]; pre-hCG COCs, 48 hours culture in DDMP 10 μM",22.2%
same,number of oocytes presenting the M II plate 24-30 hours after inhibitor removal,[5]; 3 out of 3 pre-hCG and 9 out of 11 post-hCG,Twelve
same,number of oocytes with nuclei forming a clump of chromosomes at place of metaphase plate,[5]; 24-30 hours after inhibitor removal,Two
same,M II oocytes with well-aligned chromosomes positioned perpendicular to the oolema,"[5]; 24-30 hours after inhibitor removal, control 80.0%",83.3%
same,reversibility of blocking effects,isolated oocytes,fully reversible

# From patent US20080311656A1, “Meiosis arrest in oocytes in vitro” (Novo Nordisk A/S, priority 2002, published 2008)
